Laboratory results: US20040073973A1, “Plant enzyme and use thereof” (priority 1996, published 2004)

Experiments:
Assay type in all cases: biochemical, Ulmus glabra
[1] = system: Developing Elm Seed Soluble PLA2; assay: Effects of reduction, EGTA and heat on PLA2 activity; conditions: for PLA2 Activity Released [^14C] fatty acids: control 4740 dpm; for sensitivity of PLA2 activities to reducing agents: purified soluble and microsomal PLA2s
Protocol: (§1) Membrane associated PLA2 activity was assayed according to Stahl et al. (1995) using sn-1-palmitoyl-sn-2-[^14C]decanoyl-sn-glycerol-3-phosphocholine as substrate. In standard assays of the solubilized microsomal activity and of the soluble activity 1-palmitoyl-2-[[…]]palmitoyl-glycerol-sn-3-phosphocholine was used as substrate and was presented as mixed micelles with the non-ionic detergent lubrol PX, in a PC/detergent molar relation of 1:10. Samples, 0.5-10 μl, were assayed for PLA2 activity by incubation at 30° C. for 5-30 min with 5 nmol of ^14C-labelled phosphatidylcholine (10,000 dpm/nmol) in a total volume of 50 μl of 50 mM Tris/HCl, pH 8.0 containing 10 mM CaCl2 and 0.06% (w/v) lubrol PX. The reaction was stopped by the addition of 400 μl of chloroform/methanol/acetic acid 50:50:1 followed by 150 μl of H2O. The samples were mixed thoroughly and centrifuged 10,000 g for 1 min. Chloroform phases containing extracted lipids were passed through mini-columns of silica gel, followed by a wash with 400 μl of chloroform. The eluates from the silica columns, containing released [^14C]palmitic acid, were collected and analysed by scintillation counting.

microsomal PLA2 = assay: Substrate specificity of microsomal PLA2
Protocol: as §1

[2] = system: soluble developing elm seed PLA2; assay: Position specificity of soluble PLA2 (partly purified fraction)
Protocol: as §1

Row | Compound | Recovered ^14C activity in LPC (microsomal PLA2) | Recovered ^14C activity in PC (microsomal PLA2) | Recovered ^14C activity in fatty acid (microsomal PLA2) | sensitivity of PLA2 activities to reducing agents [1] | further results
1 | O=C(O)CN(CCOCCOCCN(CC(=O)O)CC(=O)O)CC(=O)O [EGTA] | – | – | – | – | PLA2 Activity Released [^14C] fatty acids ([1]; EGTA 10 mM): 170 dpm
2 | CCCCCCCCCCCCCCCC(=O)OC[C@H](COP(=O)([O-])OCC[N+](C)(C)C)OC(=O)CCCCCCCCC [sn-1-16:0-sn-2-[^14C]10:0-PC, sn-1-palmitoyl-sn-2-[^14C]decanoyl-sn-glycerol-3-phosphocholine] | 0.6 % of total recovery | 54 % of total recovery | 44 % of total recovery | – | –
3 | O[C@H](CS)[C@H](O)CS (racemic) [DTT, dithiothreitol] | – | – | – | sensitive | –
4 | OCCS [Mercaptoethanol] | – | – | – | sensitive | PLA2 Activity Released [^14C] fatty acids ([1]; Mercaptoethanol 1% (v/v)): 170 dpm
5 | CCCCCCCCCCCCCCCC(=O)OC[C@H](COP(=O)([O-])OCC[N+](C)(C)C)OC(=O)CCCCCCCCCCCCCCC [sn-1-16:0-sn-2-[^14C]16:0-PC, sn-1-palmitoyl-sn-2-[^14C]palmitoyl-sn-glycerol-sn-3-phosphocholine] | 0.8 % of total recovery | 65 % of total recovery | 34 % of total recovery | – | Recovered ^14C activity in LPC [2]: 0.6 % of total recovery; Recovered ^14C activity in PC [2]: 56 % of total recovery; Recovered ^14C activity in fatty acid [2]: 44 % of total recovery
